# Results from a melting point compilation (Tetko et al.).
row,melting point [°C],SMILES
1,75 to 77,Cc1sc(N)nc1Cc1ccccc1
2,67 to 69,Nc1cc(CCc2ccco2)no1
3,148 to 150,NC(=O)c1ccsc1NC(=O)CCl
4,121 to 123,O=C(O)c1sccc1S(=O)(=O)N1CCCCC1CCO (stereo not drawn)
5,83 to 85,COC(=O)C1CCN(c2nccc3sccc23)CC1
6,150 to 152,O=C1CCC(=O)N1c1ncc(Br)s1
7,86 to 88,CNc1ccc(N)c(C(F)(F)F)c1
8,84 to 86,O=Cc1cnn(-c2cccc(Cl)c2)n1
9,110 to 112,O=C(NC=C(Cl)Cl)c1ccc(Br)cc1
10,257 to 259,COc1ccc(/C=C/C(=O)O)cc1S(N)(=O)=O
11,123 to 125,Cc1nc2nc(C(F)(F)F)nn2c(C)c1CCC(=O)O
12,62 to 64,N#CCN(CC#N)C(=O)CCCl
13,154 to 156,CS(=O)(=O)Nc1cc(N)ccc1F
14,179 to 181,O=C(O)c1coc(-c2ccccc2Cl)n1
15,43 to 47,Cc1nc(Cl)c2c3c(sc2n1)CCCCC3
16,173 to 177,CC(C)c1ccccc1-n1ccnc1S
17,282 to 284,O=C(O)c1ccc(CN2C(=O)CNC2=O)cc1
18,100 to 102,CCOC(=O)c1sc(-c2ccc(Cl)cc2Cl)cc1N
19,79 to 83,Cc1ccccc1-c1noc(CC#N)n1
20,178 to 180,CCn1c(S)nnc1-c1ccc(OC)cc1
21,115 to 117,Nc1cc(Cl)ccc1C(=O)N1CCCCC1CCO (stereo not drawn)
22,54 to 56,COCc1nc2cc(N)ccc2o1
23,156 to 158,Cc1sc(-n2cccc2)c(C(=O)O)c1C
24,242 to 244,O=C(Nc1sc2c(c1C(=O)O)CCC2)c1ccco1
25,254 to 260,NC(=O)c1cc(S(=O)(=O)N2CCCC2)ccc1O
26,107 to 109,CCOc1cc(C(=O)N(C)C)ccc1N

row,melting point [°C],SMILES
1,187 to 189,CC(C)=CC(=O)NCc1ccc(C(=O)O)cc1
2,76 to 78,NCCC(=O)N1CCN(c2ccccn2)CC1
3,76 to 79,O=C(CCl)NCCCc1ccccc1
4,48 to 50,CCCC(C)S(N)(=O)=O (stereo not drawn)
5,204 to 206,COCCN(C(=O)CCl)c1c(N)n(CC(C)C)c(=O)[nH]c1=O
6,96 to 98,CN(C)C(=O)c1ccc(Cl)c(NC(=O)OCC(F)(F)F)c1
7,173 to 175,NS(=O)(=O)c1cccc2c1OCCO2
8,227 to 229,O=C(O)c1ccc(NC(=O)c2cccs2)cc1
9,211 to 213,O=C(NCc1ccccc1F)c1ccc(-n2ccnc2S)cc1
10,104 to 106,CCc1ocnc1C(=O)O
11,178 to 182,CCOc1ccc(NC(=S)NN)cc1
12,63 to 65,O=Cc1cc(-c2ccccc2)cs1
13,222 to 224,CC1CSc2ccc(Cl)cc2NC1=O (stereo not drawn)
14,156 to 158,CCC1(C)NC(=O)N(CC(=O)O)C1=O (stereo not drawn)
15,152 to 154,NNC(=O)CN1C(=O)COc2ccccc21
16,230 to 232,CS(=O)(=O)Nc1cccc(C(=O)O)c1
17,63 to 65,ClCc1ncc(-c2ccccc2)o1
18,136 to 138,CC(C)c1sc(NC(=O)CCl)nc1-c1ccccc1
19,126 to 128,CCNCc1cccc(NC(=O)c2cc(Cl)c[nH]2)c1
20,114 to 116,O=C(O)c1ccccc1SC(F)F
21,159 to 161,Nc1cccc(-c2n[nH]c3c2CCCC3)c1
22,209 to 211,O=C(O)c1ccc(CNC(=O)c2cccs2)cc1
23,255 to 257,O=C(O)c1cn2cccnc2n1
24,85 to 87,CCS(=O)(=O)NCC(=O)O
25,62 to 64,OCCCNC(c1ccccc1)c1ccccc1
26,93 to 95,CC(C)(C)OC(=O)NCC1CCCCN1 (stereo not drawn)

row,melting point [°C],SMILES
1,175 to 190,Cc1ccc(S(N)(=O)=O)cc1C(=O)O
2,66 to 68,O=C(O)CCOc1ccc2ccccc2c1
3,138 to 140,NC(=O)c1ccc(Br)c(C(F)(F)F)c1
4,80 to 82,O=C(CO)N1CCCc2ccccc21
5,241 to 243,Cc1ccc(-c2nnc(Cl)c3ccccc23)cc1C
6,107 to 109,O=C(O)C1CCCCN1S(=O)(=O)c1cccs1 (stereo not drawn)
7,176 to 178,NC(NO)=C1C=CC=NC1=O
8,48 to 50,CNCCC1CCN(C2CCN(C)CC2)CC1
9,163 to 165,CN(C)C(=O)Cn1cc(Br)cn1
10,79 to 81,Cc1cc(Br)c2ccccc2c1N
11,190 to 192,Nn1c(S)nnc1-c1cccnc1
12,49 to 51,Nc1cc(Br)ccc1I
13,171 to 173,O=C(O)c1ccnc(OCc2ccccc2)c1
14,183 to 185,CON=Cc1ccc(C(=O)O)cc1
15,247 to 249,Cc1[nH]c(=O)sc1S(=O)(=O)N1CCCC1C(=O)O (stereo not drawn)
16,106 to 108,COc1ccc(C(=O)Cc2ccc(F)cc2)cc1
17,137 to 139,Nc1nonc1-c1cccc(Br)c1
18,182 to 184,NC(=O)c1cc(Br)c(N)c(Br)c1
19,265 to 267,CC1(c2ccc(I)cc2)NC(=O)NC1=O (stereo not drawn)
20,63 to 65,COCc1ccc(C(=O)O)o1
21,67 to 69,CC(C)NC(=O)CCCl
22,147 to 149,COC(=O)C(=O)Nc1ccc(C)cc1
23,151 to 153,Nc1nc2cc(Cc3ccccc3)ccc2o1
24,131 to 133,COC(=O)c1cccc(S(N)(=O)=O)c1
25,133 to 135,CCOc1cccc(C=CC(=O)O)c1OC1CCCC1
26,140 to 142,NC(=O)c1ccc2c(c1)CCCC2

row,melting point [°C],SMILES
1,125 to 127,CN(C)S(=O)(=O)c1cccc(N)c1
2,161 to 163,COCCCn1cnnc1S
3,122 to 124,Cc1cccn2cc(COc3ccc(C=O)cc3)nc12
4,205 to 209,CCOC=C1C(=O)N(c2cccc(Cl)c2)C(=O)c2ccccc21
5,137 to 139,O=C(O)C1(c2ccc(F)cc2)CCCCC1
6,161 to 163,O=C(O)C12CC3CC(C1)CC(c1ccccc1)(C3)C2
7,80 to 82,COc1cc(CC#N)c(Br)cc1OC(F)F
8,176 to 178,CC(C)N(C)S(=O)(=O)c1ccc(C(=O)O)cc1
9,135 to 137,Cc1nn(C)c2[nH]nc(N)c12
10,173 to 175,Clc1ncnc2ccc(I)cc12
11,162 to 164,O=c1[nH]c(CN2CCOCC2)nc2sc3c(c12)CCCC3
12,44 to 46,O=C(O)C1CCCN1S(=O)(=O)c1ccc(Cl)s1 (stereo not drawn)
13,182 to 184,O=C(O)CCC(=O)N1CCC(c2ccccc2)=N1
14,219 to 221,Nc1nnc(-c2cccc3ccccc23)[nH]1
15,86 to 88,N#Cc1ccc(Oc2cccc(N)c2)cc1
16,349 to 351,Cn1cc2c(=O)[nH][nH]c(=O)c2c1-c1ccc(N)cc1
17,153 to 157,Cc1cc(C)c(NC(=O)CCl)c(C)c1
18,204 to 206,Cc1ccc(-c2cc(C(=O)O)on2)cc1
19,181 to 183,COC(=O)c1cc2ccc(Cl)cc2[nH]1
20,253 to 255,O=C(O)c1n[nH]c2ccc([N+](=O)[O-])cc12
21,84 to 86,CCOC(=O)CCc1nc(CC(=O)NC)no1
22,178 to 180,O=C(O)c1cnc(Cc2ccc(F)cc2)s1
23,87 to 89,COC(=O)c1oc(CO)cc1C

row,SMILES,melting point [°C]
1,Nc1ccc2[nH]c(CCN3CCOCC3)nc2c1,201 to 203
2,NNC(=O)CN1CCCC1=O,99 to 101
